Test results: ChEMBL document CHEMBL4680273, “Teixobactin: A Paving Stone toward a New Class of Antibiotics?” (2020)
Converted amounts (≈) assume the structure as drawn. Values belong to the molecule of their own block, whether it stands above or below them. Where a SMILES comes first, the peptide text is derived from it. Bridges are numbered along the chain shown (N, C = ends). [ ]: non-standard residue; d: D form. d(aIle) = CC[C@H](C)[C@@H](N)C(=O)O; dNMeF = CN[C@H](Cc1ccccc1)C(=O)O

Key:
Assay type in all cases: functional
Bacillus subtilis [1] = test: Antibacterial activity against Bacillus subtilis 168 incubated for 24 hrs
Staphylococcus aureus [2] = test: Antibacterial activity against methicillin resistant Staphylococcus aureus ATCC 33591 incubated for 24 hrs
Staphylococcus aureus [3] = test: Antibacterial activity against methicillin resistant Staphylococcus aureus
Staphylococcus aureus [4] = test: Antibacterial activity against Staphylococcus aureus ATCC 29213
Staphylococcus aureus [5] = test: Antibacterial activity against Staphylococcus aureus ATCC 29213 by CLSI-based broth microdilution method
Staphylococcus aureus [6] = test: Antibacterial activity against Staphylococcus aureus ATCC 29213 incubated for 24 hrs by CLSI-based broth microdilution method
Bacillus subtilis [7] = test: Antibacterial activity against Bacillus subtilis ATCC 6051 incubated for 24 hrs by CLSI based broth microdilution method
Bacillus subtilis [8] = test: Antibacterial activity against Bacillus subtilis ATCC 6051 incubated for 16 hrs by UV/Visible absorbance method
Staphylococcus aureus [9] = test: Antibacterial activity against Staphylococcus aureus ATCC 29213 incubated for 16 hrs by UV/Visible absorbance method

SMILES: CC[C@H](C)[C@H](NC(=O)[C@@H](Cc1ccccc1)NC)C(=O)N[C@@H](CO)C(=O)N[C@H](CCC(N)=O)C(=O)N[C@@H](C(=O)N[C@H](C(=O)N[C@@H](CO)C(=O)N[C@H]1C(=O)N[C@@H](C)C(=O)NC(CN)C(=O)N[C@@H]([C@@H](C)CC)C(=O)O[C@H]1C)[C@@H](C)CC)[C@@H](C)CC (stereo not given in full)
MIC (Bacillus subtilis [1]): 0.5 µg/mL (≈ 0.426 µM) | MIC (Staphylococcus aureus [2]): 4 µg/mL (≈ 3.41 µM)

SMILES: CC[C@H](C)[C@H](NC(=O)[C@@H](Cc1ccccc1)NC)C(=O)N[C@@H](CO)C(=O)N[C@H](CCC(N)=O)C(=O)N[C@@H](C(=O)N[C@H](C(=O)N[C@@H](CO)C(=O)N[C@H]1C(=O)N[C@@H](C)C(=O)N[C@@H](CNC(=N)N)C(=O)N[C@@H]([C@@H](C)CC)C(=O)O[C@H]1C)[C@@H](C)CC)[C@@H](C)CC
MIC (Bacillus subtilis [1]): 1 µg/mL (≈ 0.822 µM) | MIC (Staphylococcus aureus [2]): 4 µg/mL (≈ 3.29 µM)

SMILES: CC[C@H](C)[C@H](NC(=O)[C@@H](Cc1ccccc1)NC)C(=O)N[C@@H](CO)C(=O)N[C@H](CCC(N)=O)C(=O)N[C@@H](C(=O)N[C@H](C(=O)N[C@@H](C)C(=O)N[C@H]1C(=O)N[C@@H](C)C(=O)N[C@@H](CCCCN)C(=O)N[C@@H]([C@@H](C)CC)C(=O)O[C@H]1C)[C@@H](C)CC)[C@@H](C)CC
MIC (Staphylococcus aureus [3]): 32 µg/mL (≈ 26.7 µM) | MIC (Staphylococcus aureus [4]): 32 µg/mL (≈ 26.7 µM)

SMILES: CC[C@H](C)[C@H](NC(=O)[C@H](NC(=O)[C@@H](CCC(N)=O)NC(=O)[C@H](CO)NC(=O)[C@@H](NC(=O)[C@H](Cc1ccccc1)N(C)C)[C@@H](C)CC)[C@@H](C)CC)C(=O)N[C@@H](CO)C(=O)N[C@H]1C(=O)N[C@@H](C)C(=O)N[C@@H](CCCNC(=N)N)C(=O)N[C@@H]([C@@H](C)CC)C(=O)O[C@H]1C
MIC (Staphylococcus aureus [5]): 32 µg/mL (≈ 25.4 µM)

SMILES: CC[C@H](C)[C@H](NC(=O)[C@H](Cc1ccccc1)NC)C(=O)N[C@@H](CO)C(=O)N[C@H](CCC(N)=O)C(=O)N[C@@H](C(=O)N[C@H](C(=O)N[C@@H](CO)C(=O)N[C@H]1C(=O)N[C@@H](C)C(=O)N[C@@H](CCCNC(=N)N)C(=O)N[C@@H]([C@@H](C)CC)C(=O)O[C@H]1C)[C@@H](C)CC)[C@@H](C)CC
MIC (Staphylococcus aureus [6]): 2 µg/mL (≈ 1.61 µM)

SMILES: CC[C@H](C)[C@H](NC(=O)[C@@H](Cc1ccccc1)NC(=O)c1ccccc1)C(=O)N[C@@H](CO)C(=O)N[C@H](CCC(N)=O)C(=O)N[C@@H](C(=O)N[C@H](C(=O)N[C@@H](CO)C(=O)N[C@H]1C(=O)N[C@@H](C)C(=O)N[C@@H](CCCNC(=N)N)C(=O)N[C@@H]([C@@H](C)CC)C(=O)O[C@H]1C)[C@@H](C)CC)[C@@H](C)CC
MIC (Staphylococcus aureus [6]): 8 µg/mL (≈ 5.99 µM)

SMILES: CC[C@H](C)[C@H](NC(=O)[C@@H](Cc1ccccc1)NC)C(=O)N[C@@H](CO)C(=O)N[C@H](CCC(N)=O)C(=O)N[C@@H](C(=O)N[C@H](C(=O)N[C@@H](CO)C(=O)N[C@H]1C(=O)N[C@@H](C)C(=O)N[C@@H](CCNC(=N)N)C(=O)N[C@@H]([C@@H](C)CC)C(=O)O[C@H]1C)[C@@H](C)CC)[C@@H](C)CC
MIC (Bacillus subtilis [1]): 0.5 µg/mL (≈ 0.406 µM) | MIC (Staphylococcus aureus [2]): 1 µg/mL (≈ 0.813 µM)

SMILES: CC[C@H](C)[C@H](NC(=O)[C@@H](Cc1ccccc1)NC)C(=O)N[C@@H](CO)C(=O)N[C@H](CCC(N)=O)C(=O)N[C@@H](C(=O)N[C@H](C(=O)N[C@@H](C)C(=O)N[C@H]1C(=O)N[C@@H](C)C(=O)N[C@@H](CCCNC(=N)N)C(=O)N[C@@H]([C@@H](C)CC)C(=O)O[C@H]1C)[C@@H](C)CC)[C@@H](C)CC
MIC (Staphylococcus aureus [2]): 32 µg/mL (≈ 26 µM) | MIC (Staphylococcus aureus [5]): 32 µg/mL (≈ 26 µM)

SMILES: CC[C@H](C)[C@H](NC(=O)[C@@H](Cc1ccccc1)NC)C(=O)N[C@@H](CO)C(=O)N[C@H](CCC(N)=O)C(=O)N[C@@H](C(=O)N[C@H](C(=O)N[C@@H](CO)C(=O)N[C@H]1C(=O)N[C@@H](C)C(=O)N[C@@H](CCCCN)C(=O)N[C@@H](C)C(=O)O[C@H]1C)[C@@H](C)CC)[C@@H](C)CC (H-[dNMeF]IS[dQ][d(aIle)]IS[dT]AKA; ester 8-C)
MIC (Bacillus subtilis [8]): 8 µg/mL (≈ 6.81 µM) | MIC (Staphylococcus aureus [9]): 4 µg/mL (≈ 3.41 µM)

Other lines, results leading:

MIC (Staphylococcus aureus [5]): 2 µg/mL (≈ 1.63 µM)
SMILES: CC[C@H](C)[C@H](NC(=O)[C@H](N)Cc1ccccc1)C(=O)N[C@@H](CO)C(=O)N[C@H](CCC(N)=O)C(=O)N[C@@H](C(=O)N[C@H](C(=O)N[C@@H](CO)C(=O)N[C@H]1C(=O)N[C@@H](C)C(=O)N[C@@H](CCCNC(=N)N)C(=O)N[C@@H]([C@@H](C)CC)C(=O)O[C@H]1C)[C@@H](C)CC)[C@@H](C)CC

MIC (Staphylococcus aureus [6]): 2 µg/mL (≈ 1.63 µM)
SMILES: CC[C@H](C)[C@H](NC(=O)[C@@H](N)Cc1ccccc1)C(=O)N[C@@H](CO)C(=O)N[C@H](CCC(N)=O)C(=O)N[C@@H](C(=O)N[C@H](C(=O)N[C@@H](CO)C(=O)N[C@H]1C(=O)N[C@@H](C)C(=O)N[C@@H](CCCNC(=N)N)C(=O)N[C@@H]([C@@H](C)CC)C(=O)O[C@H]1C)[C@@H](C)CC)[C@@H](C)CC

MIC (Bacillus subtilis [7]): 0.25 µg/mL (≈ 0.194 µM) | MIC (Staphylococcus aureus [6]): 4 µg/mL (≈ 3.11 µM)
SMILES: CC[C@H](C)[C@H](NC(=O)[C@@H](Cc1ccccc1)NC)C(=O)N[C@@H](CCCCN)C(=O)N[C@H](CCC(N)=O)C(=O)N[C@@H](C(=O)N[C@H](C(=O)N[C@@H](CO)C(=O)N[C@H]1C(=O)N[C@@H](C)C(=O)N[C@@H](CCCNC(=N)N)C(=O)N[C@@H]([C@@H](C)CC)C(=O)O[C@H]1C)[C@@H](C)CC)[C@@H](C)CC

MIC (Staphylococcus aureus [6]): 16 µg/mL (≈ 12.7 µM)
SMILES: CC[C@H](C)[C@H](NC(=O)[C@@H](Cc1ccccc1)N(C)C)C(=O)N[C@@H](CO)C(=O)N[C@H](CCC(N)=O)C(=O)N[C@@H](C(=O)N[C@H](C(=O)N[C@@H](CO)C(=O)N[C@H]1C(=O)N[C@@H](C)C(=O)N[C@@H](CCCNC(=N)N)C(=O)N[C@@H]([C@@H](C)CC)C(=O)O[C@H]1C)[C@@H](C)CC)[C@@H](C)CC
